Our source for the Toluene-solubility values is patent US7691925B2, “Pressure-sensitive adhesive composition, pressure-sensitive adhesive sheets and surface protecting film” (priority 2004, dated 2010).

For the data set the following is noted: 1 part ionic liquid in 9 parts toluene, 25° C., naked eyes. The protocol: “Toluene-soluble” in the present invention means that an ionic liquid is soluble in toluene, more specifically, refers to such nature that an ionic liquid is uniformly dissolved in toluene upon preparation of a 10 weight % solution of an ionic-liquid in toluene.
9 Parts by weight of toluene (guaranteed grade manufactured by Wako Pure Chemical Industries, Ltd.) was added to 1 part by weight of an ionic liquid, and this was mixed and stirred under a normal temperature (25° C.) for 10 minutes, and allowed to stand for 30 minutes.
Thereafter, solubility was assessed with naked eyes, and toluene-solubility was determined. In assessment criteria, the state where no separated substance is observed, and a substance is uniformly dissolved was assessed as “soluble” (existence of toluene-solubility).
Take `CCCCC[N+](CCCCC)(CCCCC)CCCCC.O=S(=O)([O-])C(F)(F)F` [ionic liquid (1), tetra-n-pentylammonium trifluoromethanesulfonate]: the Toluene-solubility result is given as “possession of toluene-solubility was confirmed”.

In the case of `CCCCCC[N+](CCCCCC)(CCCCCC)CCCCCC.O=S(=O)([O-])C(F)(F)F` [ionic liquid (2), tetra-n-hexylammonium trifluoromethanesulfonate], the Toluene-solubility result is recorded as “possession of toluene-solubility was confirmed”.

In the case of `CCCCCCC[N+](CCCCCCC)(CCCCCCC)CCCCCCC.O=S(=O)([O-])C(F)(F)F` [ionic liquid (3), tetra-n-heptylammonium trifluoromethanesulfonate], the Toluene-solubility result is “possession of toluene-solubility was confirmed”.

On to `CCCCCCCC[P+](CCCCCCCC)(CCCCCCCC)CCCCCCCC.O=S(=O)([O-])C(F)(F)F` [ionic liquid (4), tetra-n-octylphosphonium trifluoromethanesulfonate], for which the Toluene-solubility result was “possession of toluene-solubility was confirmed”.

Regarding `CCCC[n+]1cccc(C)c1.O=S(=O)([N-]S(=O)(=O)C(F)(F)F)C(F)(F)F` [ionic liquid (6), 1-butyl-3-methylpyridinium bis(trifluoromethanesulfon)imide, reference compound], the Toluene-solubility result is given as “possession of toluene-solubility was not confirmed”.
